Molecular target: T1, PDE6 from bovine retinal rod outer segments (Bos taurus, UniProt P11541+P23439)
T1 construct: PDE6 from bovine retinal rod outer segments; from tissue; host or cells: bovine retinal rod outer segments
T1 sequence (P11541 2-856 limits assumed): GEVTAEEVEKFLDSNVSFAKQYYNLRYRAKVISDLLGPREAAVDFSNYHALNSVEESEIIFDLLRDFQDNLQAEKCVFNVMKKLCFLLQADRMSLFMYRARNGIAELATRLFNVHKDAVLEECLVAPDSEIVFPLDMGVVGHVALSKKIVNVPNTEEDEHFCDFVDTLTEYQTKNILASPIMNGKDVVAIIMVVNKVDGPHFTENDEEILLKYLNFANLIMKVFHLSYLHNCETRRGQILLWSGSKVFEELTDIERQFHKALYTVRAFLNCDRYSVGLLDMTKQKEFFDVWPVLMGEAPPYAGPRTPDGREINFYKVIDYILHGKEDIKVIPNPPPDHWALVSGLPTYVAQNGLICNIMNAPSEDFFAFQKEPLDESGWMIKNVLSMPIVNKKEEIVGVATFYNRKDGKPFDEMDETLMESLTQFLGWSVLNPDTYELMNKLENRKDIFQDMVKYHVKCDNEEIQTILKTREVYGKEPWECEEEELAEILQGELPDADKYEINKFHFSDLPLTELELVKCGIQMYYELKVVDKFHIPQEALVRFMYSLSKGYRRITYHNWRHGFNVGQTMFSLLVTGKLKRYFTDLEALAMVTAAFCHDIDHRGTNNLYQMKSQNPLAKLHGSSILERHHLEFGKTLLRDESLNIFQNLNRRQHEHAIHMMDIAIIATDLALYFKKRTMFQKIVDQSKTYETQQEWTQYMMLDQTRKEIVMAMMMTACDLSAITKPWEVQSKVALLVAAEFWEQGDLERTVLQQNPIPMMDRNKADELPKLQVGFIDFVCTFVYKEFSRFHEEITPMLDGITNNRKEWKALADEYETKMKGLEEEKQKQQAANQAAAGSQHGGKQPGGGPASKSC
T1 sequence (P23439 2-850 limits assumed): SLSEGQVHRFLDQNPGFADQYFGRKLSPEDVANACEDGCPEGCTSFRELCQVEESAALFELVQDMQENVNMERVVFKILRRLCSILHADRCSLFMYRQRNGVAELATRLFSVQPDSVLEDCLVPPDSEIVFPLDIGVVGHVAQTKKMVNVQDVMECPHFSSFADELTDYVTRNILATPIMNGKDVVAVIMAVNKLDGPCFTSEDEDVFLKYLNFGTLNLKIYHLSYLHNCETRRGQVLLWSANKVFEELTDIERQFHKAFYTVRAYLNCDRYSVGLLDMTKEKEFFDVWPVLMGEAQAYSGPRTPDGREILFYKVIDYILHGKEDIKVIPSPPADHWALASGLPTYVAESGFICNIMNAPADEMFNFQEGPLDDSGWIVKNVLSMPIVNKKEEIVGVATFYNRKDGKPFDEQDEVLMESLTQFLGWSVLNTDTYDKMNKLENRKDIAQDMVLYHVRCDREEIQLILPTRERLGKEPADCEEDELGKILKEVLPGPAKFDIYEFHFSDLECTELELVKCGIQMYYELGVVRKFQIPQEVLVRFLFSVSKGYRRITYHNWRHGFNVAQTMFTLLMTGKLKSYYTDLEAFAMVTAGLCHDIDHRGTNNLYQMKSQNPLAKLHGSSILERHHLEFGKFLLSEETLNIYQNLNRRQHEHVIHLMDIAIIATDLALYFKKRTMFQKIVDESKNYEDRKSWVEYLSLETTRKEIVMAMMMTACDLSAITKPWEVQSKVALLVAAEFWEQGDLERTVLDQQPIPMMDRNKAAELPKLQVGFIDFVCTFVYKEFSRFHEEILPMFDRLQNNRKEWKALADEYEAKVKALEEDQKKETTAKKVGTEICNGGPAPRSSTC
Test: PDE6 enzyme assay
Assay type: biochemical

**Q.** For `CCOc1cc(C(CS(C)(=O)=O)N2C(=O)c3cccc(NC(C)=O)c3C2=O)ccc1OC` (single isomer, unassigned; (+)) [Compound A, (+)-2-[1-(3-ethoxy-4-methoxyphenyl)-2-methylsulfonylethyl]-4-acetylaminoisoindoline-1,3-dione], which “PDE Specificity Ratio PDE4/PDE6” value (from above data) is on record?
**A.** >40000 fold

**Q.** And the inhibition at 10 µM (read-out: PDE6 (% inhib at 10 µM))?
**A.** -6%
